Where “and” joins values, the source holds several entries; their conditions need not be identical. Equal entries are not always repeated.
What was measured:
IFN-β promoter = IFN-β promoter luciferase reporter in FRTL-5 thyrocytes; type: cell-based, rat
Experimental: FIG. 5. Phenylmethimazole (CIO) and Methimazole (MMI) inhibit the ability of Poly (I:C), lipopolysaccharide (LPS) and IL-1β to increase IFN-β gene expression (Top Left) and IRF-3 transactivation (Top Right) in FRTL-5 thyrocytes. (Top Left) Cells were co-transfected with IFNβ-Luc and control vector (pRLTk-Int), then treated with or without (−) Poly (I:C) (100 μg/ml), LPS (100 ng/ml), or IL-1β (10 ng/ml) in the presence of the vehicle (DMSO) alone (−), C10, or MMI for 6 hours. Data was obtained with the Dual Luciferase Assay system. (Top Right) Cells were co-transfected with Gal4 DBD/IRF-3 and Gal4-Luc then treated with nothing (−), poly (I:C), LPS, or IL-1β as in (Top Left) in the presence of DMSO or C10 for 6 hours. Data was obtained by Luciferase assay. Also shown is a graphic depiction (Bottom) of how the cis reporting system is working. Data are representative of multiple experiments.
C10, at 0.5 mM, inhibited the ability of poly (I:C) to increase IFN-β promoter activity (luciferase luminescence; P<0.01) when incubated with FRTL-5 thyrocytes transfected with pIFN-β-luc constructs (FIG. 5 Top Left, Poly (I:C) vs untreated (−)).
Plasmids for Reporter Gene Assays. Human IRF-3 was amplified from human cDNA and cloned into pCR 2.1 by the TOPO/TA (Invitrogen, Carlsbad, Calif.) cloning method, and then sequenced. […]

ICAM-1 and VCAM-1 = assay: Histology and ICAM-1/VCAM-1 immunohistochemistry in organs of LPS-treated mice; type: in vivo, mouse
Experimental: Histology: Tissue from liver, lung, kidney and heart from normal, LPS and LPS plus C-10 treated mice (experiment in Table 5), were fixed in 4%-PBS-formalin overnight. They then were dehydrated serially in alcohols 50%-70%-90%-100%, clarified in chloroform, and embedded in paraffin. Five (5) sections were obtained and mounted on Vectabond™ (Vector Laboratories, Inc. Burlingame, Calif.) pretreated slides. The sections were incubated twice (10 minutes each) in xylol and re-hydrated by serial alcohol treatments, 100%-90-70-50, followed by distilled water. Tissues were stained with Hematoxylin-Eosin using standard protocols, mounted, and observed by optical microscopy in a double blind manner.
Immunohistochemistry (IHC): C10 (pMMI) effects on the over-expression of adhesion molecules induced by LPS were studied in different organs. […] At 18 h after LPS injection, mice were sacrificed and the heart, lung, liver spleen and kidney were removed and fixed in 4% formalin in PBS. The tissue was then dehydrated in serial alcohols (50% v/v, twice; 70% v/v, twice; 80% v/v, twice; 95% v/v, twice; and 100% v/v, twice), cleared in pure chloroform, embedded in paraffin and sectioned ([…] thickness) and mounted on Vectabond™ (Vector Laboratories, Inc. Burlingame, Calif.) pre-treated slides. […]

HAEC = assay: IFN-β-induced IRF-1 and Stat1 phosphorylation in human aortic endothelial cells (immunoblot); type: cell-based
[1] = system: human aortic endothelial cells (HAEC); settings: cited from earlier work
RAW 264.7 cells = assay: LPS-induced cytokine mRNA in RAW 264.7 macrophages (real-time PCR, Northern); settings: RAW 264.7, LPS 1 μg/mL
[2] = 1 hour, real-time PCR vs DMSO control
[3] = 3 hours, real-time PCR vs DMSO control

Q: What does the source list for `Cn1c(-c2ccccc2)cnc1S` [Compound C10, 5-Phenylmethimazole]?
A: LPS- or IL-1β-increased IFN-β luciferase activity (IFN-β promoter; FRTL-5, LPS 100 ng/ml or IL-1β 10 ng/ml, 0.5 mM C-10, 5 mM MMI, P<0.05 or better): inhibited the increase; poly (I:C)-increased IFN-β promoter activity (luciferase) (IFN-β promoter; FRTL-5, Poly (I:C) 100 μg/ml, 6 hours, C10 0.5 mM, P<0.01): inhibited; microcirculatory damage and inflammatory cellular infiltration in lung (ICAM-1 and VCAM-1; H&E, 18 hours): ameliorated; ICAM-1 and VCAM-1 over-expression on endothelial cells (lung, liver) (ICAM-1 and VCAM-1; immunohistochemistry): suppressed; Stat1 serine phosphorylation at residue 727 (HAEC; 100 U/mL hIFN-β 2 hours, 1 mM C10): decreased; IFN-β induced Stat1 phosphorylation (Y701) (HAEC; 2 hours, C10 1 mM): decrease; IFN-β induction of IRF-1 protein (HAEC; 2 hours, C10 1 mM): strongly decreased; cytokine-induced HAEC expression of VCAM-1 (protein and mRNA) [1]: strongly inhibits; monocytic cell adhesion to cytokine inflamed HAEC under in vitro flow conditions [1]: inhibits; E-selectin expression ([1]; cytokine-induced, HAEC): modest effect; ICAM-1 expression ([1]; cytokine-induced, HAEC): very little effect; reduction in LPS-increased TNF-α (RAW 264.7 cells; 1 or 6 hours, real-time PCR): no reduction; decrease in LPS-increased IFN-β gene expression (RAW 264.7 cells; [2]): 8 fold; decrease in LPS-induced IL-1β (RAW 264.7 cells; [2]): 11 fold; decrease in LPS-increased IL-6 (RAW 264.7 cells; [3]): 16 fold and > 16 fold; reduction in LPS-increased TNF-α (RAW 264.7 cells; [3]): 4 fold; reduction in LPS-induced IL-12 p40 (RAW 264.7 cells; 6 hours, real-time PCR vs DMSO control): 16 fold
